Our source for the Activity and IC50 values is ChEMBL document CHEMBL1141346, “Psammaplysenes C and D, cytotoxic alkaloids from Psammoclemma sp” (J Nat Prod, 2007).

Test [1] addresses T1, P2X purinoceptor 7 (Homo sapiens) (UniProt Q99572).
T1 sequence (whole entry): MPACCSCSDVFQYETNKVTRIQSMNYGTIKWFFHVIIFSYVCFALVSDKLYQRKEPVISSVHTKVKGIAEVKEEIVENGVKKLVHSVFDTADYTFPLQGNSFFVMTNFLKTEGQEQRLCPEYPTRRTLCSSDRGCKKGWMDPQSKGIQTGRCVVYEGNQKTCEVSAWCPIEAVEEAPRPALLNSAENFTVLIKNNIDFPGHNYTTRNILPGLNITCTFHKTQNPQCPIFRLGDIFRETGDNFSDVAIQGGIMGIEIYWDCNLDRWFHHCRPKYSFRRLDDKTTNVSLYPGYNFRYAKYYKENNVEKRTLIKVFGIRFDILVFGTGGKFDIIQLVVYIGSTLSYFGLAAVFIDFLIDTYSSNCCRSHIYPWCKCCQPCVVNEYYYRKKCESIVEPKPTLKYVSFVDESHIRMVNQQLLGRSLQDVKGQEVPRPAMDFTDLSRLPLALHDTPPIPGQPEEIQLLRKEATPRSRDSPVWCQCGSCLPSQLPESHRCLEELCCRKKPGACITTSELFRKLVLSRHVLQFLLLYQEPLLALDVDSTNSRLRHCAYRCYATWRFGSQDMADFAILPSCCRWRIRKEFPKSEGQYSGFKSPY
Put plainly: Antagonist activity at P2X7 receptor expressed in human THP1 cells after 90 mins. Further details: scale not given: the % may be the effect or the level left. As to conditions: THP-1. The test is classed as functional, cell-based.

The subject of another test is THP-1. Put plainly: Cytotoxicity against human THP1 cells expressing P2X7 receptor after 21 hrs by Almar blue cytotoxicity assay. It counts as functional, cell-based. The note with it: THP-1, 21 h.

`CN(C)CCCOc1ccc(/C=C/C(=O)N(C)CCCOc2c(Br)cc(CCN(C)C)cc2Br)cc1Br` [PSAMMAPLYSENE C] showed an Activity in test [1] of 44%. The 50% inhibitory concentration (IC50) in the test with THP-1 is 7 µM.
Compound `CN(C)CCCOc1c(Br)cc(/C=C/C(=O)N(C)CCCOc2c(Br)cc(CCN(C)C)cc2Br)cc1Br` [PSAMMAPLYSENE D] had an Activity in test [1] of 72%. In the test on THP-1, this compound came in with an IC50 of 7 µM.
